# In ChEMBL document CHEMBL3526052 (Drug Metab Dispos, 2013):
# Experiments:
# [1] = target: T1, Equilibrative nucleoside transporter 1 (Homo sapiens, UniProt Q99808); experiment: Binding affinity to recombinant human ENT1 expressed in Saccharomyces cerevisiae assessed as inhibition of [3H]-uridine transport after 15 mins by scintillation counting analysis; type: ADME
# T1 sequence (Q99808 whole entry): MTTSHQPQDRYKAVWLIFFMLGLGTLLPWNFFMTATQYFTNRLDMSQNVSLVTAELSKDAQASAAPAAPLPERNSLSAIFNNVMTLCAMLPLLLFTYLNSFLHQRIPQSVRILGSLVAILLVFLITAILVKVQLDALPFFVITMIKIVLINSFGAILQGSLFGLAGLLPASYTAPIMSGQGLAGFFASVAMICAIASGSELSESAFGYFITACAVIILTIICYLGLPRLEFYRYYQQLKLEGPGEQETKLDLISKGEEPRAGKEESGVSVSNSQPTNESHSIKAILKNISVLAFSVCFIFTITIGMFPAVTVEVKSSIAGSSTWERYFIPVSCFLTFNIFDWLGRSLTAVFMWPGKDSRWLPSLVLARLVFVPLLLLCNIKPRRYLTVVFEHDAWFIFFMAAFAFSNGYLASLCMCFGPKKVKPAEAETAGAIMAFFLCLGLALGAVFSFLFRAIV
# [2] = AUC (0 to infinity) in CD-1 mouse at 0.1 mg/kg, iv administered as bolus dose in absence of ENT1 inhibitor NBMPR-P; type: ADME, organism-based; parameters: time infinity, dose 0.1 mg/kg, route intravenous; settings: plasma
# [3] = tested on: Brain; experiment: AUC (0 to 4 hrs) in CD-1 mouse brain at 0.1 mg/kg, iv administered as bolus dose in absence of ENT1 inhibitor NBMPR-P; type: ADME, organism-based; parameters: time < 4 hr, dose 0.1 mg/kg, route intravenous; settings: in vivo
# [4] = tested on: Brain; experiment: AUC (0 to 4 hrs) in CD-1 mouse brain at 0.1 mg/kg, iv administered as bolus dose in presence of ENT1 inhibitor NBMPR-P; type: ADME, organism-based; parameters: time < 4 hr, dose 0.1 mg/kg, route intravenous; settings: in vivo
# [5] = target: T1, Equilibrative nucleoside transporter 1; experiment: Drug transport in human CCRF-CEM cells assessed as ENT1-mediated uptake measured per 10^6 cells after 5 secs by Michaelis-Menten equation analysis; type: ADME, cell-based; settings: 5 s
# [6] = Elimination half life in CD-1 mouse at 0.1 mg/kg, iv administered as bolus dose in absence of ENT1 inhibitor NBMPR-P; type: ADME, organism-based; parameters: dose 0.1 mg/kg, route intravenous; settings: in vivo, read-out: beta t1/2 (converted)
# [7] = target: T2, Solute carrier family 28 member 3 (Homo sapiens, UniProt Q9HAS3); experiment: Binding affinity to recombinant human CNT3 expressed in Saccharomyces cerevisiae assessed as inhibition of [3H]-uridine transport after 5 mins by scintillation counting analysis; type: ADME; settings: for Ki: read-out: Ki(app)
# T2 sequence (Q9HAS3 whole entry): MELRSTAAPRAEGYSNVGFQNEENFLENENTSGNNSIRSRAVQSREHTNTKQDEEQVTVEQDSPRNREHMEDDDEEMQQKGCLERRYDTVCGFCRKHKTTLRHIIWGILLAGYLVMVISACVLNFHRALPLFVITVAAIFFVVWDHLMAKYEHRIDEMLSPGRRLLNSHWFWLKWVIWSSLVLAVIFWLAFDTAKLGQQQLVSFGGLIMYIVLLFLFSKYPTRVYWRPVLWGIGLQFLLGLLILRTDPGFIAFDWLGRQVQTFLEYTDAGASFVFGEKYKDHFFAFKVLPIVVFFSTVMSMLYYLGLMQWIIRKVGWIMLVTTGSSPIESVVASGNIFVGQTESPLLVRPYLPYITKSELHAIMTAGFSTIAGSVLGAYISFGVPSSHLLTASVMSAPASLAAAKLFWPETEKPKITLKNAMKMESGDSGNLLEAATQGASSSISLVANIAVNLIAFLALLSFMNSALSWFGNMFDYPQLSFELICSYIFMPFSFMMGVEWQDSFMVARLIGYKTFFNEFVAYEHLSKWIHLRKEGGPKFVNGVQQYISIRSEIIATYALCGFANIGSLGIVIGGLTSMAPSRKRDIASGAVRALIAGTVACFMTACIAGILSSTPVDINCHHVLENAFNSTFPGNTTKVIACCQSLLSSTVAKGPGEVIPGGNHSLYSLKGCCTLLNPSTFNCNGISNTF
# [8] = Tmax in CD-1 mouse brain at 0.1 mg/kg, iv administered as bolus dose in presence of ENT1 inhibitor NBMPR-P; type: ADME, organism-based; parameters: dose 0.1 mg/kg, route intravenous
# [9] = target: T1, Equilibrative nucleoside transporter 1; experiment: Drug transport in Xenopus laevis oocytes assessed as recombinant human ENT1-mediated uptake up to 1 mM measured per 2 mins by Michaelis-Menten equation analysis; type: ADME, cell-based
# [10] = target: T3, ENT1 (equilibrative nucleoside transporter 1) (Homo sapiens, UniProt Q99808); experiment: Drug transport in Xenopus laevis oocytes assessed as recombinant human ENT1-mediated uptake up to 1 mM by Michaelis-Menten equation analysis; type: ADME, cell-based; settings: Xenopus laevis oocytes expressing recombinant human ENT1, read-out: Km(app)
# T3 sequence (Q99808 whole entry): T1 sequence (Q99808 whole entry)
# [11] = target: T3, ENT1 (equilibrative nucleoside transporter 1); experiment: Drug transport in human CCRF-CEM cells assessed as ENT1-mediated uptake after 5 secs by Michaelis-Menten equation analysis; type: ADME, cell-based
# [12] = species on record: Xenopus laevis; experiment: Drug uptake in water-injected Xenopus laevis oocytes up to 1 mM measured per 2 mins; type: ADME, organism-based; settings: in vivo
# [13] = Tmax in CD-1 mouse brain at 0.1 mg/kg, iv administered as bolus dose in absence of ENT1 inhibitor NBMPR-P; type: ADME, organism-based; parameters: dose 0.1 mg/kg, route intravenous
# [14] = Cmax in CD-1 mouse brain at 0.1 mg/kg, iv administered as bolus dose in presence of ENT1 inhibitor NBMPR-P; type: ADME, organism-based; parameters: dose 0.1 mg/kg, route intravenous
# [15] = Cmax in CD-1 mouse brain at 0.1 mg/kg, iv administered as bolus dose in absence of ENT1 inhibitor NBMPR-P; type: ADME, organism-based; parameters: dose 0.1 mg/kg, route intravenous
# [16] = target: T4, Sodium/nucleoside cotransporter 2 (Homo sapiens, UniProt O43868); experiment: Binding affinity to recombinant human CNT2 expressed in Saccharomyces cerevisiae assessed as inhibition of [3H]-uridine transport after 15 mins by scintillation counting analysis; type: ADME; settings: for Ki: read-out: Ki(app)
# T4 sequence (O43868 whole entry): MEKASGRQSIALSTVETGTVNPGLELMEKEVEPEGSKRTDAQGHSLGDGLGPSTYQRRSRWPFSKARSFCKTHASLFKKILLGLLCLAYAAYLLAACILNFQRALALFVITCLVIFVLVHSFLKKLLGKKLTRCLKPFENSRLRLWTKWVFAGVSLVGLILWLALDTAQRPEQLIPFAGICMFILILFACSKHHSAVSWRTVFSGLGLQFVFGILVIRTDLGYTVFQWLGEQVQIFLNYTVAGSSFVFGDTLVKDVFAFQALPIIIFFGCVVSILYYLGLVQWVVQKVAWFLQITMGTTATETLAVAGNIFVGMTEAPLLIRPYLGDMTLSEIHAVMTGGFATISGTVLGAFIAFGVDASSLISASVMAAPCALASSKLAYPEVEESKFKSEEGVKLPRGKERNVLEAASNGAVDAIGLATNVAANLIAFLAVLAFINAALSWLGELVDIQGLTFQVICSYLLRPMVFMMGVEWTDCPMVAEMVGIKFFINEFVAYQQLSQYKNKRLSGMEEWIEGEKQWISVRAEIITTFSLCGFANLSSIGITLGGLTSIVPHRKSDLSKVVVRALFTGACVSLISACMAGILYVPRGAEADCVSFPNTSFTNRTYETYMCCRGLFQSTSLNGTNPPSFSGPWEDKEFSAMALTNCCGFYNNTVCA
# [17] = Elimination half life in CD-1 mouse at 0.1 mg/kg, iv administered as bolus dose in presence of ENT1 inhibitor NBMPR-P; type: ADME, organism-based; parameters: dose 0.1 mg/kg, route intravenous; settings: in vivo, read-out: beta t1/2 (converted)
# [18] = target: T5, Equilibrative nucleoside transporter 2 (Homo sapiens, UniProt Q14542); experiment: Binding affinity to recombinant human ENT2 expressed in Saccharomyces cerevisiae assessed as inhibition of [3H]-uridine transport after 15 mins by scintillation counting analysis; type: ADME; settings: for Ki: read-out: Ki(app)
# T5 sequence (Q14542 whole entry): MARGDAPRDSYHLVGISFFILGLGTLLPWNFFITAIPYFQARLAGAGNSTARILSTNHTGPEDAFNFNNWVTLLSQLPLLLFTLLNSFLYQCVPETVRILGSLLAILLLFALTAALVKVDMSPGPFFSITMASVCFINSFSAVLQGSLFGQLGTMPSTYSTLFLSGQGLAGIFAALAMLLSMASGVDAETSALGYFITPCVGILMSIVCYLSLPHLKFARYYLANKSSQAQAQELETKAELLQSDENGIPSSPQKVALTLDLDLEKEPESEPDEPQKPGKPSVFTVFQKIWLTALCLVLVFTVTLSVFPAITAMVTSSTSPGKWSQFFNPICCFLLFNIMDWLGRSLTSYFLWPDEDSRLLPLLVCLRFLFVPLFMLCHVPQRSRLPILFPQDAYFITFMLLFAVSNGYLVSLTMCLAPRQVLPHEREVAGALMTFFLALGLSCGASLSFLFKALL
# [19] = AUC (0 to infinity) in CD-1 mouse at 0.1 mg/kg, iv administered as bolus dose in presence of ENT1 inhibitor NBMPR-P; type: ADME, organism-based; parameters: time infinity, dose 0.1 mg/kg, route intravenous; settings: plasma
# [20] = Apparent volume of distribution at steady state in CD-1 mouse at 0.1 mg/kg, iv administered as bolus dose in absence of ENT1 inhibitor NBMPR-P; type: ADME, organism-based; parameters: dose 0.1 mg/kg, route intravenous; settings: in vivo, read-out: Vdss(app)
# [21] = target: T6, Sodium/nucleoside cotransporter 1 (Homo sapiens, UniProt O00337); experiment: Binding affinity to recombinant human CNT1 expressed in Saccharomyces cerevisiae assessed as inhibition of [3H]-uridine transport after 15 mins by scintillation counting analysis; type: ADME; settings: for Ki: read-out: Ki(app)
# T6 sequence (O00337 whole entry): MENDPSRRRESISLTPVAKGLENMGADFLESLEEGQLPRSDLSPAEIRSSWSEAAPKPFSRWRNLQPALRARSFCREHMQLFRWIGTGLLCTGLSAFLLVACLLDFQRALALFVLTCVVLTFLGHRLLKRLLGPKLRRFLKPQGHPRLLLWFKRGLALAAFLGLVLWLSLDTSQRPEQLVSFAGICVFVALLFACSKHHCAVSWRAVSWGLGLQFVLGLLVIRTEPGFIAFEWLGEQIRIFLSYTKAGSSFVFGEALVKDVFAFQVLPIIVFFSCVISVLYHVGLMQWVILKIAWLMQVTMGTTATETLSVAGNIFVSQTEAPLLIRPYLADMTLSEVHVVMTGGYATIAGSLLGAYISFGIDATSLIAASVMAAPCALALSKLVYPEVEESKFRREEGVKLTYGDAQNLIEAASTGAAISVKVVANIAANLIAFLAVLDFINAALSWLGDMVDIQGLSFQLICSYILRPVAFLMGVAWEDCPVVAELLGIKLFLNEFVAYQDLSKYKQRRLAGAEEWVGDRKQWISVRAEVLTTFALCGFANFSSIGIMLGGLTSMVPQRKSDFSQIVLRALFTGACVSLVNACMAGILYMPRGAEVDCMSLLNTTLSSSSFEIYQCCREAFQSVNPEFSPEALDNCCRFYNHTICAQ
# [22] = Apparent volume of distribution at steady state in CD-1 mouse at 0.1 mg/kg, iv administered as bolus dose in presence of ENT1 inhibitor NBMPR-P; type: ADME, organism-based; parameters: dose 0.1 mg/kg, route intravenous; settings: in vivo, read-out: Vdss(app)
structure (smiles),measurement,setting,value
OC[C@H]1O[C@@H](n2cnc3c(N[C@@H]4CCOC4)ncnc32)[C@H](O)[C@@H]1O [TECADENOSON],IC50,[1],12 µM
same,Ki,[1]; read-out: Ki(app),11 µM
same,AUC(0-inf),[2],16.4 ng·h/mL
same,AUC,[3],22 ng·h/g
same,AUC,[4],7 ng·h/g
same,Vmax,[5],3.4 pmol
same,half-life,[6],42 min
same,IC50,[7],200 µM
same,Ki,[7],126 µM
same,Tmax,[8],11.4 min
same,Vmax,[9],46.7 pmol
same,Km,[10],196 µM
same,Km at 5 s,[11],24 µM
same,Drug uptake,[12],5 pmol
same,Tmax,[13],6.6 min
same,Cmax,[14],4 ng/g
same,Cmax,[15],23 ng/g
same,IC50,[16],239 µM
same,Ki,[16],231 µM
same,half-life,[17],66 min
same,IC50,[18],190 µM
same,Ki,[18],189 µM
same,AUC(0-inf),[19],50.5 ng·h/mL
same,Vd,[20],2.8 L/kg
same,IC50,[21],41 µM
same,Ki,[21],37 µM
same,Vd,[22],2.2 L/kg
Nc1ncnc2c1ncn2[C@@H]1O[C@H](CO)[C@@H](O)[C@H]1O [ADENOSINE],IC50,[7],3.3 µM
same,Ki,[7],2.1 µM
same,IC50,[16],5.5 µM
same,Ki,[16],5.3 µM
same,IC50,[18],106 µM
same,Ki,[18],106 µM
same,IC50,[21],5.5 µM
same,Ki,[21],1.8 µM
